Source: patent US8673578B2, “Methods of identifying antagonists of the hTAS2R46 bitter taste receptor” (Deutsches Institut für Ernahrungsforschung Potsdam-Rehbrücke, priority 2009, dated 2014)

Experiments:
Assay in all cases: calcium imaging (FLIPR), effect on agonist-dependent hTAS2R activation
Assay type in all cases: cell-based
hTAS2R46 = molecular target: T1, hTAS2R46 (Homo sapiens, UniProt P59540); conditions: for agonist-dependent response of hTAS2R46-expressing cells on coapplication: 100 μM test substance, agonist picrotoxinin 300 μM (EC90), agonist alone = 100%
T1 construct: expressed in transfected cells; host or cells: HEK293T cells stably expressing chimeric Gα16gust44, transient transfection
T1 sequence (P59540 1-309): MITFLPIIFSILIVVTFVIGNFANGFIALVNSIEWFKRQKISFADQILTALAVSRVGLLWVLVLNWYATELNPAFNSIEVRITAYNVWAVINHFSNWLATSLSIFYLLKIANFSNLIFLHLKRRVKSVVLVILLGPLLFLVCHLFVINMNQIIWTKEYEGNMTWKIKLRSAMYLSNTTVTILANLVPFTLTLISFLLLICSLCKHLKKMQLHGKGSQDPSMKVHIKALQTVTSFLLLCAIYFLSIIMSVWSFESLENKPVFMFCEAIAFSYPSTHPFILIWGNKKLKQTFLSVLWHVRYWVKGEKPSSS
Source text: (§1) Human TAS2R cDNAs were cloned into pcDNA5/FRT (Invitrogen, San Diego, Calif.). For adequate plasma membrane targeting, receptor cDNA was fused to the aminoterminal sequence of the rat somatostatin type 3 receptor at the aminoterminus of the recombinant protein (Bufe, B., T. Hofmann, et al. (2002) Nat Genet. 32(3): 397-401). For immunological detection, the Herpes simplex Glycoprotein D epitope was supplemented at the carboxyterminus of the recombinant protein (Bufe et al., supra). Receptor constructs were transiently transfected into HEK293T cells stably expressing the chimeric G protein subunit Gα16gust44 (Ueda, T., S. Ugawa, et al. (2003) J Neurosci 23(19): 7376-80) using Lipofectamine 2000 (Invitrogen, San Diego, Calif.) in 96-well plates.
(§2) Calcium Imaging experiments were performed 24 h after transfection using a Fluorometric Imaging Plate Reader (FLIPR, Molecular Devices, Munich, Germany) as previously described (Bufe et al., supra). Taste active compounds were ordered from Sigma (Sigma-Aldrich, Taufkirchen, Germany). Absinthin, 3β hydroxy dihydro costunolide and 3β hydroxy pelenolide were kindly provided by Giovanni Appendino (Novara, Italy). Test substances were directly dissolved in C1 buffer (130 mM NaCl, 10 mM Na-Hepes, 10 mM Glucose, 5 mM KCl, 2 mM CaCl2, pH 7.4) or in DMSO, respectively. DMSO stocks were further diluted in C1 buffer not exceeding a final DMSO concentration of 1% on the cells. For the investigation of antagonistic effects, test substances were premixed. Agonists were applied at concentrations corresponding to EC90, except where indicated otherwise (Table 2). Data were collected from 3 independent experiments performed in quadruplicates and processed with SigmaPlot (SPSS, Chicago, Ill.). Fluorescence signals after application of test substances were corrected for and normalized to background fluorescence (ΔF/F═(F−F0)/F0), and baseline noise was subtracted. Calculation of dose-response curves was done by nonlinear regression using the function f(y)=((a−d)/(1+(x/EC50)^nH)+d).
(§3) To test 3β hydroxy dihydro costunolide and 3β hydroxy pelenolide for antagonistic or enhancing effects on hTAS2R activation, transfected cells were stimulated with cognate agonist bitter substances at EC90 concentrations (Table 2) without 3β hydroxy dihydro costunolide and 3β hydroxy pelenolide. The cellular responses after application of the agonist alone were set to 100%, responses obtained after coapplication of agonists and 100 μM 3β hydroxy dihydro costunolide or 100 μM 3β hydroxy pelenolide are shown relative to this value (FIG. 4).
Next we determined concentrations of half-maximal inhibition of TAS2R46. FIG. 5 illustrates the concentration-inhibition curves of TAS2R46 activated by picrotoxinin in the presence of various concentrations of 3β hydroxy dihydro costunolide or 3β hydroxy pelenolide. […] In agreement with the data described above the costunolide analog appears to be more potently inhibiting TAS2R46 than the pelenolide analog. […] As expected 3β hydroxy pelenolide has to be employed at ˜6 fold higher concentrations than 3β hydroxy dihydro costunolide to achieve 50% receptor inhibition.
Next, we established concentration-response curves for strychnine at TAS2R46 in the presence of various concentrations of 3β hydroxy dihydro costunolide.
Finally, the impact of chemical modifications on the antagonistic properties of 3β hydroxy dihydro costunolide on hTAS2R46-expressing cells was studied. Derivatives of 3β hydroxy dihydro costunolide with site-directed modifications at C3 and C11 were generated (FIG. 7A) These derivatives were tested for activation or inhibition of hTAS2R46-expressing cells in the absence or presence of the agonist strychnine (3 μM) and half-maximum effective concentrations (EC50) or half-maximal inhibitory concentrations were calculated (FIG. 7B).

hTAS2R43 = molecular target: T2, hTAS2R43 (Homo sapiens, UniProt P59537, H212R/W35S); conditions: 100 μM test substance; agonist aristolochic acids 0.3 μM (EC90); agonist alone = 100%
T2 construct: expressed in transfected cells; host or cells: HEK293T cells stably expressing chimeric Gα16gust44, transient transfection
T2 sequence (P59537 1-309 W35S/H212R): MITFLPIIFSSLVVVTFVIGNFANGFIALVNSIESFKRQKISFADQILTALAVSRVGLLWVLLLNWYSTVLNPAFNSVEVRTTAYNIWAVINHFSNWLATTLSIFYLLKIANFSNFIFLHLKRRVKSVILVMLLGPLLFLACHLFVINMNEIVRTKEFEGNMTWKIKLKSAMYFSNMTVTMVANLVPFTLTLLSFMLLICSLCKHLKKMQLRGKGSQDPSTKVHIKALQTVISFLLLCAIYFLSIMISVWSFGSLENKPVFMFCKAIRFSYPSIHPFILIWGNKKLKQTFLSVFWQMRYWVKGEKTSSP
Source text: as §1, §2, §3

hTAS2R47 = molecular target: T3, hTAS2R47 (Homo sapiens, UniProt P59541); conditions: 100 μM test substance; agonist brucine 100 μM (EC90); agonist alone = 100%
T3 construct: expressed in transfected cells; host or cells: HEK293T cells stably expressing chimeric Gα16gust44, transient transfection
T3 sequence (P59541 1-319): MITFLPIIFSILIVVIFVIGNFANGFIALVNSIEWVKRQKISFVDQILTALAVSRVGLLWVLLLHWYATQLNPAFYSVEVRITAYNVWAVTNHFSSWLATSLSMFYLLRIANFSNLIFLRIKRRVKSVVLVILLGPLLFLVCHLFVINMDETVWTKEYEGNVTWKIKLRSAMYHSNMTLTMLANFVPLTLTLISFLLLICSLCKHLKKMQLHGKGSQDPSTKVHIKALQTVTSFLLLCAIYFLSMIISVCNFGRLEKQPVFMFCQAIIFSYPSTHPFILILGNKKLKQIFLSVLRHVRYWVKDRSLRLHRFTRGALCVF
Source text: as §1, §2, §3

hTAS2R40 = molecular target: T4, hTAS2R40 (Homo sapiens, UniProt P59535); conditions: 100 μM test substance; agonist cohumulone 0.3 μM (EC90); agonist alone = 100%
T4 construct: expressed in transfected cells; host or cells: HEK293T cells stably expressing chimeric Gα16gust44, transient transfection
T4 sequence (P59535 whole entry): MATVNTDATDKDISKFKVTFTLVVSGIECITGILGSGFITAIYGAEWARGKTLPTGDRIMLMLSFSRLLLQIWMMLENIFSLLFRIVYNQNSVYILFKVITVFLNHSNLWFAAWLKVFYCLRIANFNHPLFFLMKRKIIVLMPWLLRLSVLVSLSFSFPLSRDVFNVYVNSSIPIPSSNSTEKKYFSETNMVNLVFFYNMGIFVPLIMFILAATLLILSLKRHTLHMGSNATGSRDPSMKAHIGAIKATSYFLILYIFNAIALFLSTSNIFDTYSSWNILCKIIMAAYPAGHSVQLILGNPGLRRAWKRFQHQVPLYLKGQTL
Source text: as §1, §2, §3

[1] = agonist denatonium benzoate 300 μM

Q: Which results are given for C/C1=C\C[C@H](O)[C@@H](C)C[C@H]2OC(=O)[C@@H](C)[C@@H]2CC1 [3β hydroxy pelenolide]?
A: agonist-dependent response of hTAS2R46-expressing cells on coapplication (hTAS2R46): moderately attenuating effect; fold higher concentration than 3β hydroxy dihydro costunolide to achieve 50% receptor inhibition (hTAS2R46; TAS2R46): ~6 fold; IC50 (hTAS2R46; agonist absinthin 100 μM): 57.8 ± 24.9 µM; IC50 (hTAS2R46; agonist andrographolide 30 μM): 44.5 ± 34.5 µM; IC50 (hTAS2R46; [1]): 51.4 ± 28.8 µM; IC50 (hTAS2R46; agonist picrotoxinin 300 μM): 22.9 ± 3.4 µM; IC50 (hTAS2R46; agonist strychnine 3 μM): 84.9 ± 50.2 µM; agonist-dependent response of hTAS2R43-expressing cells on coapplication (hTAS2R43): completely inhibited; agonist-dependent response of hTAS2R47-expressing cells on coapplication (hTAS2R47): completely inhibited; agonist-dependent response of hTAS2R40-expressing cells on coapplication (hTAS2R40): moderately attenuating effect

Q: How did the “strychnine response amplitude at TAS2R46 with increasing inhibitor concentrations” value (hTAS2R46; 0, 10, 30, 100 μM inhibitor) turn out when C/C1=C\C[C@H](O)/C(C)=C/[C@H]2OC(=O)[C@@H](C)C2CC1 (stereo partly drawn) [3β hydroxy dihydro costunolide] was run?
A: Its value is “largely unaffected”.

Q: What about the “change of the strychnine EC50 value at hTAS2R46 on coapplication” value (hTAS2R46; 100 μM inhibitor, P<0.05, one-way ANOVA) of the same compound?
A: The value was “significant increase”.

Q: What about the “agonist-dependent response of hTAS2R46-expressing cells on coapplication” value (hTAS2R46) of the same compound?
A: Its value is “complete block”.

Q: And the IC50 (hTAS2R46; agonist absinthin 100 μM)?
A: The IC50 was 14.1 ± 1.35 µM.

Q: What about the IC50 (hTAS2R46; agonist andrographolide 30 μM) of the same compound?
A: Its IC50 is 4.93 ± 0.54 µM.

Q: What about the IC50 (hTAS2R46; [1]) of the same compound?
A: The IC50 was 6.78 ± 2.33 µM.

Q: What about the IC50 (hTAS2R46; agonist picrotoxinin 300 μM) of the same compound?
A: The IC50 was 4.81 ± 1.43 µM.

Q: What about the IC50 (hTAS2R46; agonist strychnine 3 μM) of the same compound?
A: Its IC50 is 15.3 ± 5.85 µM.

Q: And the “action on hTAS2R46-expressing cells (inhibition)” value (hTAS2R46; presence of agonist strychnine 3 μM)?
A: The value was “antagonists”.

Q: What about the “mode of action of the inhibitor at TAS2R46” value (hTAS2R46; strychnine concentration-response curves with 0, 10, 30, 100 μM inhibitor) of the same compound?
A: Its value is “competitive”.

Q: And the “agonist-dependent response of hTAS2R43-expressing cells on coapplication” value (hTAS2R43)?
A: Its value is “only moderately reduced”.

Q: What about the “agonist-dependent response of hTAS2R47-expressing cells on coapplication” value (hTAS2R47) of the same compound?
A: Its value is “complete block”.

Q: And the “agonist-dependent response of hTAS2R40-expressing cells on coapplication” value (hTAS2R40)?
A: Its value is “only moderately reduced”.
